Experiment [1] has as its target T1, human recombinant dopamine D2L receptor (Homo sapiens, UniProt P14416).
T1 construct: expressed in transfected cells; host or cells: CHO cells
Briefly: Dopamine D2L antagonist activity ([35S]GTPγS binding, SPA). It is filed as biochemical. The procedure:
To determine for agonist or antagonist activity of compounds of the invention in functional assays, human recombinant dopamine D2L receptor stably expressed in Chinese hamster ovary (CHO) cells (Senogles S E et al. J Biol Chem. 265(8): 4507, 1990) was used. Compounds of invention were pre-incubated with the membranes (0.1 mg/ml) and […] in modified HEPES buffer (20 mM HEPES, pH 7.4, 100 mM NaCl, 10 mM MgCl2, 1 mM DTT, 1 mM EDTA) for 20 minutes and Scintillation Proximity Assay (SPA) beads were added for another 60 minutes at 30° C. The reaction was initiated by 0.3 nM [^35S]GTPγS for an additional 15 minute incubation period. […] Compounds were screened at 3 μM or lower, using 0.4% DMSO as vehicle. Assay results are presented as the percent response of specific binding in Table 8.
(In general: Binding of GTPγS marks nucleotide exchange on a G protein.)

In experiment [2] the target is human recombinant dopamine D2S receptor (Homo sapiens, UniProt P14416). Put plainly: Dopamine D2S antagonist activity ([35S]GTPγS binding, SPA). It is filed as biochemical. The procedure:
To determine for agonist or antagonist activity of compounds of the invention in functional assays, human recombinant dopamine D2S receptor stably expressed in Chinese hamster ovary (CHO) cells (Gilliland S L and Alper R H. Naunyn-Schmiedeberg's Archives of Pharmacology. 361: 498, 2000) was used. Compounds of invention were pre-incubated with the membranes (0.05 mg/ml) and 3 μM GDP in modified HEPES buffer (20 mM HEPES, pH 7.4, 100 mM NaCl, 10 mM MgCl2, 1 mM DTT, 1 mM EDTA) for 20 minutes and Scintillation Proximity Assay (SPA) beads were then added for another 60 minutes at 30° C. The reaction was initiated by 0.3 nM [^35S]GTPγS for an additional 30 minute incubation period. […] Compounds were screened at 3 μM or lower, using 0.4% DMSO as vehicle. Assay results are presented as the percent response of specific binding in Table 9.

Experiment [3] has as its system adrenergic receptors α1D, α2A, α2B; serotonin receptor 5-HT6; dopamine receptor D2L. Briefly: Classification of compounds (Type 1-4) from receptor binding and neurite outgrowth.
Experiment [4] deals with T2, human recombinant serotonin 5-HT2A receptor (Homo sapiens, UniProt P28223).
T2 construct: expressed in transfected cells; host or cells: HEK-293 cells
Put plainly: Serotonin 5-HT2A agonist/antagonist functional assay (calcium fluorescence, HEK-293). It is filed as cell-based. Conditions: antagonist mode. An excerpt:
To determine for agonist or antagonist activity of compounds of the invention in functional assays, human recombinant serotonin 5-HT2A receptor expressed in human embryonic kidney (HEK-293) cells (Jerman J C, Brough S J, Gager T, Wood M, Coldwell M C, Smart D and Middlemiss D N. Eur J Pharmacol, 414: 23-30, 2001) was used. Cells were suspended in DMEM buffer, and distributed in microplates. A cytoplasmic calcium fluorescent indicator which varies proportionally to the free cytosolic Ca^2+ ion concentration was mixed with probenicid in HBSS buffer complemented with 20 mM Hepes (pH 7.4), added into each well and equilibrated with the cells for 30 min at 37° C. followed by 30 min at 22° C. […]
The standard reference antagonist was ketanserin, which was tested in each experiment at several concentrations to generate a concentration-response curve from which its IC50 value was calculated.

Where [5] appears, read: 0.3 uM, two values = assay run twice, read-out: Antagonist Activity As Measured by % Inhibition D2L.
Setting [6] is: two values = assay run twice, read-out: Antagonist Activity As Measured by % Inhibition D2S.
[7] abbreviates: 0.03 uM, two values = assay run twice.

“And” between values parts separate entries of the source, which are not always exact repeats. Identical values can stand only once.

As usually defined, the inhibition is the share of the control response that was lost under treatment.

T1 sequence (P14416 whole entry): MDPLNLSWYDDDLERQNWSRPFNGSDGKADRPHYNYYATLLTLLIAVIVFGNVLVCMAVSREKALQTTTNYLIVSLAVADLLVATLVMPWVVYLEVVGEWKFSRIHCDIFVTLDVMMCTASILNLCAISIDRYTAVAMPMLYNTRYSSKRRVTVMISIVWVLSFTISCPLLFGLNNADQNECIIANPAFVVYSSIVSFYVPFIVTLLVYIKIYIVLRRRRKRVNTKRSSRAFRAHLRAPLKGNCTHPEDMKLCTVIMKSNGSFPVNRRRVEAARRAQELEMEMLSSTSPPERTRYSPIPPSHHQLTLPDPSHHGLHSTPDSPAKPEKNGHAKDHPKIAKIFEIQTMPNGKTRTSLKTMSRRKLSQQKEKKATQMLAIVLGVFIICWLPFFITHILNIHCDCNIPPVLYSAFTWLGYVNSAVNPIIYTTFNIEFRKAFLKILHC
Chain of human recombinant dopamine D2S receptor (P14416 1-414 isoform P14416-2): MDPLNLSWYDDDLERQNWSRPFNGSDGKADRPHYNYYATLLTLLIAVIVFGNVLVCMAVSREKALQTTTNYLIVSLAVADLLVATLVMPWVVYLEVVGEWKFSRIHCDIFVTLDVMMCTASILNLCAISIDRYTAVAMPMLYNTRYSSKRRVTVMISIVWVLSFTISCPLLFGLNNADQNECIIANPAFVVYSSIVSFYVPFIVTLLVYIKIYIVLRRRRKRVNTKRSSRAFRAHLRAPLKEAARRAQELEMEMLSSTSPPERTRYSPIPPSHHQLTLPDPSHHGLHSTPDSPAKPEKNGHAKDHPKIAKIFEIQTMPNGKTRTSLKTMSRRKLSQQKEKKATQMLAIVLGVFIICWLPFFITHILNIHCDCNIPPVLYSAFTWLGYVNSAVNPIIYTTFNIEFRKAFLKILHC
T2 sequence (P28223 whole entry): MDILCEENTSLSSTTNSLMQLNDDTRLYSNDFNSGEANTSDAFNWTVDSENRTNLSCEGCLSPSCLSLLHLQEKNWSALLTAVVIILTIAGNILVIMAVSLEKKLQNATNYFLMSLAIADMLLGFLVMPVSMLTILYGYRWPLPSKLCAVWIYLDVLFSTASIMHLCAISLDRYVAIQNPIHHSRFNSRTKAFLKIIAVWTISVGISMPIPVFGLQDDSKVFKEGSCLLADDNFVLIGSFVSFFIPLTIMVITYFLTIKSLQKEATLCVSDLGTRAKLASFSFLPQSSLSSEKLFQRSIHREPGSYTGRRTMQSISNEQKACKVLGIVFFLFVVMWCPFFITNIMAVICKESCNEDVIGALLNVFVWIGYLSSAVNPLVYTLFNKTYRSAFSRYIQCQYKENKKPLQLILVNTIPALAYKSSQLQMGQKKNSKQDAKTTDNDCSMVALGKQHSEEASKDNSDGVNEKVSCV

Regarding `Cc1ccc2c(c1)c1c(n2CCc2ccc(C(F)(F)F)nc2)CCN(C)C1` [Compound 68], the inhibition at 0.3 µM in experiment [1] (setting [5]) was found to be 8%; in experiment [2] (setting [6]) it was 42%. Besides, the inhibition at 1 µM in experiment [1] (1 uM, read-out: Antagonist Activity As Measured by % Inhibition D2L) amounted to 27%; in experiment [2] (1 uM, read-out: Antagonist Activity As Measured by % Inhibition D2S), 70%. The inhibition at 3 µM in experiment [1] (3 uM, read-out: Antagonist Activity As Measured by % Inhibition D2L) turned out to be 54%; in experiment [2] (3 uM, read-out: Antagonist Activity As Measured by % Inhibition D2S) it was 93%. Further, the “compound type (classification by receptor binding profile and neurite outgrowth)” value in experiment [3] is listed as “Type one”.

On to `CN1CCc2c(c3cc(F)ccc3n2CCc2ccc(F)cc2)C1` [Compound 253], for which the “% of Control Agonist Response, 1st Assay” value in experiment [4] (test concentration 1.00E−06 M) is reported as 0%; in experiment [4] (test concentration 1.00E−07 M), 94%; in experiment [4] (test concentration 3.00E−06 M), −3%; in experiment [4] (test concentration 3.00E−07 M), 36%; in experiment [4] (test concentration 3.00E−08 M) it was 114%. Further, the “% of Control Agonist Response, 2nd Assay” value is 3% in experiment [4] (test concentration 1.00E−06 M); 95% in experiment [4] (test concentration 1.00E−07 M); −3% in experiment [4] (test concentration 3.00E−06 M); 80% in experiment [4] (test concentration 3.00E−07 M); 119% in experiment [4] (test concentration 3.00E−08 M). In addition, the “% of Control Agonist Response, Mean” value is given as 1.5% in experiment [4] (test concentration 1.00E−06 M); 94.3% in experiment [4] (test concentration 1.00E−07 M); −2.6% in experiment [4] (test concentration 3.00E−06 M); 57.9% in experiment [4] (test concentration 3.00E−07 M); 116.5% in experiment [4] (test concentration 3.00E−08 M). In addition, the “Antagonist Activity As Measured by % Inhibition D2L” value in experiment [1] (setting [7]) is recorded as 56%; in experiment [1] (0.1 uM, two values = assay run twice) it was 77%; in experiment [1] (0.3 uM, two values = assay run twice), 89%. Also, the inhibition at 0.03 µM in experiment [1] (0.03 uM, two values = assay run twice, read-out: Antagonist Activity As Measured by % Inhibition D2L) was found to be 36%. In addition, the inhibition at 0.1 µM is 57% in experiment [1] (0.1 uM, two values = assay run twice, read-out: Antagonist Activity As Measured by % Inhibition D2L) and 94% in experiment [2] (0.1 uM, two values = assay run twice, read-out: Antagonist Activity As Measured by % Inhibition D2S). Moreover, the inhibition at 0.3 µM turned out to be 81% in experiment [1] (setting [5]) and 96% in experiment [2] (setting [6]). In experiment [2] (setting [7]), the “Antagonist Activity As Measured by % Inhibition D2S” value is 104% and 80%.

The values above are taken from patent publication US9096591B2, “Tetracyclic compounds” (Medivation Technologies, Inc., priority 2007, dated 2015).
